Source: patent US8217059B2, “Compositions and methods for treating spasticity” (Allergan, Inc., priority 2009, dated 2012)
Entries after “also recorded” stand apart in the source; their conditions may differ.

How the values were obtained:
[1] = system: rats with spasticity; experiment: Peripheral muscle resistance during computer-controlled ankle flexion in rats with ischemia-induced spasticity; assay type: in vivo
Protocol: (§1) After ischemia, animals with developed paraplegia were selected and maintained for 3-12 months. To identify the presence of spasticity, the following tests were performed at 7-14 day intervals as described below: 1) tonic EMG activity recorded from gastrocnemius muscle (i.e., stimulus-independent changes in EMG activity); 2) peripheral muscle resistance measurement during a computer controlled ankle-flexion and simultaneous EMG recording from gastrocnemius muscle (i.e., stimulus-dependent changes in EMG activity); and 3) motor evoked potential recording.
Peripheral muscle resistance was measured using a previously described system (O. Kakinohana, Neuroscience 1:141(3) (2006)). Briefly, animals are placed into a plastic restrainer and one hind paw attached by a tape to a metal plate driven by a computer-controlled stepping motor. The metal plate is equipped with a digital force transducer. The resistance of the ankle to flexion was measured during motor-driven ankle flexion and data collected directly to the computer.

[2] = system: rats with spasticity; experiment: Electromyographic (EMG) recording from gastrocnemius muscle during ankle flexion in rats with ischemia-induced spasticity; assay type: in vivo; settings: 100 mg/kg i.p., FIG. 1
Protocol: as §1
To record EMGs, two silver needle (22 G) electrodes (distance between recording electrodes=1 cm) were placed percutaneously into the gastrocnemius muscle. Electrodes were connected to a preamplifier (HS4 fiber optic BIOAMP HEADSTAGE, WPI) and amplified using DB4 fiber optic amplifier (WPI). Animals were then allowed to acclimate for 10 min and the EMG responses recorded before, during and after ankle flexion. Recorded signal was digitized by the Instrunet Model 100 Network A/D, acquired by the Instrunet Model 200 PCI controller (Omega, USA) and stored in PC for analysis.

Question: How did the “spasticity associated with transient ischemia of the spinal cord” value ([1]; 100 mg/kg) turn out when `N[C@@H](C(=O)N1CCCC1)[C@@H](O)c1ccncc1` [Compound A] was run?
Answer: inhibits the spasticity

Question: What about the “muscle resistance during the period of ankle flexion” value ([1]; 100 mg/kg of Compound A, spasticity after transient spinal cord ischemia) of the same compound?
Answer: decrease in muscle resistance

Question: What about the “EMG response / EMG activity” value [2] of the same compound?
Answer: corresponding changes in EMG activity; also recorded: inhibits EMG response
